A short description of this data set: HPLC partitioning of synthetic helix dimers between aqueous mobile phase and nonpolar C-18 stationary phase as a function of pH. The data set is classed as physicochemical. The method, then: To determine whether the properties of the synthetic helices corresponded to their expected properties, each was tested on an HPLC column using a nonpolar (C-18) stationary phase. A sample of synthetic peptide solution was then injected, and the elution time (time to emerge from the bottom of the column) measured. The void time for the column was measured by injecting a small charged molecule such as citrate or acetate. The fraction of the sample solubilized in the aqueous, mobile phase (versus that bound to the hydrophobic, immobile phase) is determined by the void time divided by the sample elution time. A sample emerging in the void time is completely soluble in the mobile phase, whereas if it emerges in two void times it is half solubilized in the mobile phase and half bound to the stationary phase. By this procedure the affinity of each of the synthetic peptides for the aqueous, mobile phase, relative to the hydrophobic, stationary phase, could be measured as a function of pH. The HPLC column was run isocratically (constant eluent) using one of several different buffer systems. […] For that reason a value of 13% was used for all the buffer systems in that at that concentration the elution time for the peptides was determined to be on the order of 2 to 20 times the void time. […] The column was allowed to equilibrate as judged by 214 nm absorbance baseline stability. […]

We go through 2 sequences from patent US5302526A, “Recombinant DNA enclosed amphiphilic leader sequences for the production and purification of fusion proteins” (Creative BioMolecules, Inc., priority 1993, dated 1994).

Like-named read-outs stand apart in the source and are kept apart here. Ends that are not written are not given here.

On to “AKNLNEAAKNLNEA [Helix P-72, (Ala--Lys--Asn--Leu--Asn--Glu--Ala)2]”, for which the “fraction of the helix partitioned into the aqueous mobile phase (partition coefficient) as a function of pH” value is given as “as the pH increased the peptide partitioned increasingly into the hydrophobic (stationary) phase”.

For the sequence “AHNLNEAAHNLNEA [Helix P-81, (Ala--His--Asn--Leu--Asn--Glu--Ala)2]”, the “fraction of the helix partitioned into the aqueous mobile phase (partition coefficient) as a function of pH” value (C-18 HPLC, isocratic, 13% acetonitrile, trend with increasing pH) is listed as “fraction of the helix partitioning into the mobile phase increases as pH increases”.
